Assays:
BRM = biological target: T1, BRM (Homo sapiens, UniProt P51531); assay: ATPase catalytic activity of BRM, ADP-Glo in vitro biochemical assay; conditions: ATPase catalytic activity, 30 nM BRM, 400 μM ATP, read-out: BRM IP50 (μM)*
T1 construct: made in house; host or cells: High Five insect cells

BRG-1 = biological target: T2, BRG-1 (Homo sapiens, UniProt P51532); assay: ATPase catalytic activity of BRG-1, ADP-Glo in vitro biochemical assay; conditions: ATPase catalytic activity, 30 nM BRG-1, 400 μM ATP, read-out: BRG1 IP50 (μM)*
T2 construct: made in house; host or cells: High Five insect cells
T2 sequence (P51532 whole entry): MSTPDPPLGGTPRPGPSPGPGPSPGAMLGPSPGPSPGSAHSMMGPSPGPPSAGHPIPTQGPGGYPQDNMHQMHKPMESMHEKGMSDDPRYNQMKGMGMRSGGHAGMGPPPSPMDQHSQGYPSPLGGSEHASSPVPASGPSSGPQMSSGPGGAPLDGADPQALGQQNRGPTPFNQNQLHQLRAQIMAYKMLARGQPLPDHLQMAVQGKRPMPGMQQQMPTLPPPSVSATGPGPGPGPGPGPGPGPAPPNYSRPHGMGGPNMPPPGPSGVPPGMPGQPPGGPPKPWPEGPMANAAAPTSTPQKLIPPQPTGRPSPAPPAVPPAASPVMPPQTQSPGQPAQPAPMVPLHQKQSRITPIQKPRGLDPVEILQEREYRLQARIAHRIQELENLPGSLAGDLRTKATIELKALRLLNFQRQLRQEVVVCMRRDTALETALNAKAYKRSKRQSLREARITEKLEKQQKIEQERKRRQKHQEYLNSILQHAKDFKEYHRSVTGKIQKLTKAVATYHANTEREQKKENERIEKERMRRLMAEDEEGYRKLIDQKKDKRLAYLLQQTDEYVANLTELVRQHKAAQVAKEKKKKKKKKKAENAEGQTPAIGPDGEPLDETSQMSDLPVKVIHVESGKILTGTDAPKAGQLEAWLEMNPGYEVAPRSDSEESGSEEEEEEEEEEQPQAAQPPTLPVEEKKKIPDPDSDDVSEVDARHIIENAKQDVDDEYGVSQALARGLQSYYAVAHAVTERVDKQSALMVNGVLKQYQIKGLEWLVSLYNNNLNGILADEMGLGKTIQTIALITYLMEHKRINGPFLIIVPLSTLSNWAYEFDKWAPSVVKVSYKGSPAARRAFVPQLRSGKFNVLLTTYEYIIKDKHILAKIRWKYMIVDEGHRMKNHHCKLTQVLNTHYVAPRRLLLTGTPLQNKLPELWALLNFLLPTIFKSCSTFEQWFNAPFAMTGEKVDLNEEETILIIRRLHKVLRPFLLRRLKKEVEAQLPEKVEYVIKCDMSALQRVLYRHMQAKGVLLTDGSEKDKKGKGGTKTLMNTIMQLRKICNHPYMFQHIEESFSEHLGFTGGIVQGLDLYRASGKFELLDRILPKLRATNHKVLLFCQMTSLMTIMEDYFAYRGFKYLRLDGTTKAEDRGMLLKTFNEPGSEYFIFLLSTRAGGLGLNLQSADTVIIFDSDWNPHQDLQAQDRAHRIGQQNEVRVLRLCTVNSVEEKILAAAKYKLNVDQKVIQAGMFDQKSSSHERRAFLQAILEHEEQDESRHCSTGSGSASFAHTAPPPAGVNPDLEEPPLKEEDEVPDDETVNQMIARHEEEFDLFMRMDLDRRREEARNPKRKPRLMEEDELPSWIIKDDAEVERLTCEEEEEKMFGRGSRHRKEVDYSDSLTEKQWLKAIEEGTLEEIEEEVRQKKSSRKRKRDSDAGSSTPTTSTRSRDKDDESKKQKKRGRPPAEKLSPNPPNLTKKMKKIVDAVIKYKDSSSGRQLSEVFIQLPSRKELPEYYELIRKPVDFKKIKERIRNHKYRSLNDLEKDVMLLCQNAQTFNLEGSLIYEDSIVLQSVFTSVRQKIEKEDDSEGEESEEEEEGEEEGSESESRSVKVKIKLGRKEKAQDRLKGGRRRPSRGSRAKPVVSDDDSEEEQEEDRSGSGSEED

T1 sequence (P51531 whole entry): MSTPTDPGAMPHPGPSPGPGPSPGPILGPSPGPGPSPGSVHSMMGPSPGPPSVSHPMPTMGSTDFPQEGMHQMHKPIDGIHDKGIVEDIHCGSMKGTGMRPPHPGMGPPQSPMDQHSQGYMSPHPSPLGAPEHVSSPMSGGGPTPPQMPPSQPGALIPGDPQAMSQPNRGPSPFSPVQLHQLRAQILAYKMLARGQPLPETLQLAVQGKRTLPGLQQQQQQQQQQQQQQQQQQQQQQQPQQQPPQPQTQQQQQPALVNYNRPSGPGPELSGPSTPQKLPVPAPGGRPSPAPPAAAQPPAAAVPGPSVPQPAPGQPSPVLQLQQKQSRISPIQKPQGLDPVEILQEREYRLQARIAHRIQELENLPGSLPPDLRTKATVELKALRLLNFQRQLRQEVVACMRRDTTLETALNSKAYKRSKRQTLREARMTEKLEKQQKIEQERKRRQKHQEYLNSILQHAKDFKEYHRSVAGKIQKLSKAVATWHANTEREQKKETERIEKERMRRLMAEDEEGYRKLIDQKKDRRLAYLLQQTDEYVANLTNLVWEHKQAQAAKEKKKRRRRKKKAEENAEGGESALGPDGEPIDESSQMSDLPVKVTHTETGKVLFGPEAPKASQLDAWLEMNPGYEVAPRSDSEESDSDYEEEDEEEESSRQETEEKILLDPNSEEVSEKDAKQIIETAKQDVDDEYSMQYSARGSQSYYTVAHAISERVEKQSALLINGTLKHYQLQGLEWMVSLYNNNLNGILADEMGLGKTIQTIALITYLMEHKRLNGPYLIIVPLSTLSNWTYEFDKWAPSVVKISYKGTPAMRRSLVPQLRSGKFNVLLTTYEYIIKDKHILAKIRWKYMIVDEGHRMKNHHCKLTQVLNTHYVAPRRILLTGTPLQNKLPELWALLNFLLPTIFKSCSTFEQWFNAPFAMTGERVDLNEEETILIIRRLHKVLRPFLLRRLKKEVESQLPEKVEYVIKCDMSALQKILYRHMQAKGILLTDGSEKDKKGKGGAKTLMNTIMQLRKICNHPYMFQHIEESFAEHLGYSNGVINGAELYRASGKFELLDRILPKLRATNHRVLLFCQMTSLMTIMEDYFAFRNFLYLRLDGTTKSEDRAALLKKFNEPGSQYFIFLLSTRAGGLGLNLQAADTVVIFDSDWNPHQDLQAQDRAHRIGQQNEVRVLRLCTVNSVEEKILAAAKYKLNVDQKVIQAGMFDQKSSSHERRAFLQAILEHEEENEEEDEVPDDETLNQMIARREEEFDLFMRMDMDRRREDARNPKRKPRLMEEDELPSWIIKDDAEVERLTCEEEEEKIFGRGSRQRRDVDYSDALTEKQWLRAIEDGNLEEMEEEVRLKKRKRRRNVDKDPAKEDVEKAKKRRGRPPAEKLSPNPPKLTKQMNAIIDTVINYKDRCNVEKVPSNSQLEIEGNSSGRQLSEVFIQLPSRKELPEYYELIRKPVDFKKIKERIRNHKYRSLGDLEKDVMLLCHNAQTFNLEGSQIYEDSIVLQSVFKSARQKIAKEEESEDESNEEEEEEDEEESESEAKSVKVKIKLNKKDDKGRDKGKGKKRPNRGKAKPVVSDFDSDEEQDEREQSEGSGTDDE

Compound	IC50 (BRM) [µM]	IC50 (BRG-1) [µM]
C[C@@H]1CN(c2cccc(-c3csc(NC(=O)CNC(=O)c4ccn(C(C)(C)C)c4)n3)c2F)C[C@H](C)O1 [Compound 269]	> 0.01	> 0.01
CN1CCc2ccc(-c3csc(NC(=O)CNC(=O)c4ccn(S(C)(=O)=O)c4)n3)cc21 [Compound 270]	> 0.01	> 0.01
CS(=O)(=O)n1ccc(C(=O)NCC(=O)Nc2nc(-c3cccc(-c4cnnn4C(F)F)c3)cs2)c1 [Compound 278]	> 0.01	> 0.01
CS(=O)(=O)n1ccc(C(=O)NCC(=O)Nc2nc(-c3cccc(OC4CCOCC4)c3)cs2)c1 [Compound 279]	> 0.01	> 0.01
CNc1cccc(-c2csc(NC(=O)CNC(=O)c3ccn(S(C)(=O)=O)c3)n2)c1 [Compound 280]	> 0.01	> 0.01
CN1CCOc2ccc(-c3csc(NC(=O)CNC(=O)c4ccn(S(C)(=O)=O)c4)n3)cc21 [Compound 282]	< 0.01	< 0.01
CS(=O)(=O)n1ccc(C(=O)NCC(=O)Nc2nc(-c3cccc(OC(F)F)c3)cs2)c1 [Compound 285]	> 0.01	> 0.01
CN(C)c1cccc(-c2csc(NC(=O)CNC(=O)c3ccn(S(C)(=O)=O)c3)n2)c1 [Compound 287]	< 0.01	> 0.01
C[C@@H]1C[C@@H](COc2cccc(-c3csc(NC(=O)CNC(=O)c4ccn(S(C)(=O)=O)c4)n3)c2)C[C@H](C)O1 [Compound 291]	> 0.01	> 0.01
C[C@@H]1C[C@H](COc2cccc(-c3csc(NC(=O)CNC(=O)c4ccn(S(C)(=O)=O)c4)n3)c2)C[C@H](C)O1 [Compound 292]	> 0.1	> 0.1
C[C@@H]1CN(c2cc(-c3csc(NC(=O)CNC(=O)c4ccn(S(C)(=O)=O)c4)n3)ccc2F)C[C@H](C)O1 [Compound 293]	< 0.01	< 0.01
C[C@@H]1CN(c2cccc(-c3csc(NC(=O)CNC(=O)c4ccn(S(C)(=O)=O)c4)n3)c2F)C[C@H](C)O1 [Compound 294]	> 0.01	> 0.01
C[C@@H]1CN(c2cc(F)cc(-c3csc(NC(=O)CNC(=O)c4ccn(S(C)(=O)=O)c4)n3)c2)C[C@H](C)O1 [Compound 295]	< 0.01	< 0.01
C[C@@H]1CN(c2cc(-c3csc(NC(=O)CNC(=O)c4ccn(C(C)(C)C)c4)n3)ccn2)C[C@H](C)O1 [Compound 299]	< 0.01	> 0.01
CN1CCCc2ccc(-c3csc(NC(=O)CNC(=O)c4ccn(S(C)(=O)=O)c4)n3)cc21 [Compound 306]	> 0.01	> 0.01
CO[C@H]1CCCN(c2cccc(-c3csc(NC(=O)CNC(=O)c4ccn(C5(C)COC5)c4)n3)n2)C1 [Compound 313]	> 0.1	> 0.1
C[C@@H]1CN(c2cccc(-c3csc(NC(=O)CNC(=O)c4ccn(C5(C)COC5)c4)n3)n2)C[C@H](C)O1 [Compound 316]	< 0.01	> 0.01
CC(C)(C)n1ccc(C(=O)NCC(=O)Nc2nc(-c3cccc(N4CC(N5CCOCC5)C4)n3)cs2)c1 [Compound 317]	> 0.1	> 0.1
COC[C@@H]1CCCN(c2cccc(-c3csc(NC(=O)CNC(=O)c4ccn(C(C)(C)C)c4)n3)n2)C1 [Compound 318]	> 0.01	> 0.01
CC1(n2ccc(C(=O)NCC(=O)Nc3nc(-c4ccnc(N5CCC(O)CC5)n4)cs3)c2)COC1 [Compound 321]	> 0.01	> 0.1
CC(C)(C)n1ccc(C(=O)NCC(=O)Nc2nc(-c3ccnc(N4CCC(O)CC4)n3)cs2)c1 [Compound 322]	> 0.01	> 0.01
Cn1ccc(-c2cccc(-c3csc(NC(=O)CNC(=O)c4ccn(C5(C)COC5)c4)n3)n2)n1 [Compound 327, 1-(3-methyloxetan-3-yl)-N-[2-[[4-[6-(1-methylpyrazol-3-yl)-2-pyridyl]thiazol-2-yl]amino]-2-oxo-ethyl]pyrrole-3-carboxamide]	> 0.01	> 0.01
C[C@@H]1CN(c2cccc(-c3csc(NC(=O)CNC(=O)c4ccn(C5(C(F)(F)F)CC5)c4)n3)n2)C[C@H](C)O1 [Compound 332]	> 0.01	> 0.1

Second part, the compound after the results:

IC50 (BRM) [µM]	IC50 (BRG-1) [µM]	Compound
> 0.01	> 0.1	CC1(n2ccc(C(=O)NCC(=O)Nc3nc(-c4ccc5c(c4)OCC5)cs3)c2)COC1 [Compound 271]
> 0.01	> 0.1	CNc1cccc(-c2csc(NC(=O)CNC(=O)c3ccn(C(C)(C)C)c3)n2)c1 [Compound 272]
> 0.01	> 0.1	CN1CCCCc2ccc(-c3csc(NC(=O)CNC(=O)c4ccn(S(C)(=O)=O)c4)n3)cc21 [Compound 273]
> 0.01	> 0.01	CS(=O)(=O)n1ccc(C(=O)NCC(=O)Nc2nc(-c3cccc(OC4CCCOC4)c3)cs2)c1 (centres unmarked) [Compound 274]
> 0.01	> 0.01	CS(=O)(=O)n1ccc(C(=O)NCC(=O)Nc2nc(-c3cccc(-c4cn(C(F)F)nn4)c3)cs2)c1 [Compound 275]
> 0.01	> 0.01	CS(=O)(=O)n1ccc(C(=O)NCC(=O)Nc2nc(-c3cccc(OC(F)(F)F)c3)cs2)c1 [Compound 276]
< 0.01	> 0.01	CS(=O)(=O)n1ccc(C(=O)NCC(=O)Nc2nc(-c3cccc(-c4cnn(C5CC5)n4)c3)cs2)c1 [Compound 277]
> 0.01	> 0.01	CC(C)Oc1cccc(-c2csc(NC(=O)CNC(=O)c3ccn(S(C)(=O)=O)c3)n2)c1 [Compound 281]
> 0.01	> 0.01	CN1CCOc2ccc(-c3csc(NC(=O)CNC(=O)c4ccn(C(C)(C)C)c4)n3)cc21 [Compound 283]
> 0.01	> 0.01	CS(=O)(=O)n1ccc(C(=O)NCC(=O)Nc2nc(-c3cccc(OC4CCC4)c3)cs2)c1 [Compound 284]
> 0.01	> 0.01	CCOc1cccc(-c2csc(NC(=O)CNC(=O)c3ccn(S(C)(=O)=O)c3)n2)c1 [Compound 286]
> 0.01	> 0.01	CN(C)c1cccc(-c2csc(NC(=O)CNC(=O)c3ccn(C(C)(C)C)c3)n2)c1 [Compound 288]
> 0.01	> 0.01	CS(=O)(=O)n1ccc(C(=O)NCC(=O)Nc2nc(-c3cccc(-c4cnn(C(F)F)n4)c3)cs2)c1 [Compound 289]
< 0.01	> 0.01	CS(=O)(=O)n1ccc(C(=O)NCC(=O)Nc2nc(-c3cccc(N4CC[C@@H](N)[C@H](F)C4)c3)cs2)c1 [Compound 290]
> 0.01	> 0.01	Cc1cc(-c2cccc(-c3csc(NC(=O)CNC(=O)c4ccn(S(C)(=O)=O)c4)n3)c2)on1 [Compound 296]
> 0.01	> 0.1	C[C@@H]1CN(c2ccc(F)c(-c3csc(NC(=O)CNC(=O)c4ccn(S(C)(=O)=O)c4)n3)c2)C[C@H](C)O1 [Compound 297]

IC50 (BRM) [µM]	IC50 (BRG-1) [µM]	Compound
> 0.01	> 0.01	CS(=O)(=O)n1ccc(C(=O)NCC(=O)Nc2nc(-c3cccc(C4CCC4)c3)cs2)c1 [Compound 298]
< 0.01	> 0.01	CS(=O)(=O)n1ccc(C(=O)NCC(=O)Nc2nc(-c3cccc(OC[C@H]4CCOC4)c3)cs2)c1 [Compound 303, 1-methylsulfonyl-N-[2-oxo-2-[[4-[3-[[(3S)-tetrahydrofuran-3-yl]methoxy]phenyl]thiazol-2-yl]amino]ethyl]pyrrole-3-carboxamide]
> 0.01	> 0.01	CS(=O)(=O)n1ccc(C(=O)NCC(=O)Nc2nc(-c3cccc(OC[C@@H]4CCOC4)c3)cs2)c1 [Compound 304, 1-methylsulfonyl-N-[2-oxo-2-[[4-[3-[[(3R)-tetrahydrofuran-3-yl]methoxy]phenyl]thiazol-2-yl]amino]ethyl]pyrrole-3-carboxamide]
> 0.01	> 0.01	CN1CCCc2ccc(-c3csc(NC(=O)CNC(=O)c4ccn(C(C)(C)C)c4)n3)cc21 [Compound 305]
> 0.01	> 0.01	CS(=O)(=O)n1ccc(C(=O)NCC(=O)Nc2nc(-c3cccc(OCC4CCC4)c3)cs2)c1 [Compound 307]
> 0.01	> 0.01	CC(C)(C)n1ccc(C(=O)NCC(=O)Nc2nc(-c3ccc4c(c3)OCC4)cs2)c1 [Compound 308]
> 0.01	> 0.01	CS(=O)(=O)n1ccc(C(=O)NCC(=O)Nc2nc(-c3ccc4c(c3)OCC4)cs2)c1 [Compound 309]
> 0.01	> 0.01	CO[C@H]1CCCN(c2cccc(-c3csc(NC(=O)CNC(=O)c4ccn(C(C)(C)C)c4)n3)n2)C1 [Compound 311]
> 0.01	> 0.01	CO[C@@H]1CCCN(c2cccc(-c3csc(NC(=O)CNC(=O)c4ccn(C(C)(C)C)c4)n3)n2)C1 [Compound 312]
> 0.01	> 0.01	CC(C)(C)n1ccc(C(=O)NCC(=O)Nc2nc(-c3cccc(N4CCC(O)CC4)n3)cs2)c1 [Compound 314]
> 0.01	> 0.01	COC[C@H]1CCCN(c2cccc(-c3csc(NC(=O)CNC(=O)c4ccn(C(C)(C)C)c4)n3)n2)C1 [Compound 319]
> 0.01	> 0.01	C[C@@H]1CN(c2nccc(-c3csc(NC(=O)CNC(=O)c4ccn(C5(C)COC5)c4)n3)n2)C[C@H](C)O1 [Compound 324]
< 0.01	< 0.01	C[C@@H]1CN(c2nccc(-c3csc(NC(=O)CNC(=O)c4ccn(S(C)(=O)=O)c4)n3)n2)C[C@H](C)O1 [Compound 325]
< 0.01	> 0.01	C[C@@H]1CN(c2nccc(-c3csc(NC(=O)CNC(=O)c4ccn(C(C)(C)C)c4)n3)n2)C[C@H](C)O1 [Compound 326]
> 0.1	> 0.1	CO[C@@H]1CCCN(c2cccc(-c3csc(NC(=O)CNC(=O)c4ccn(C5(C)COC5)c4)n3)n2)C1 [Compound 330]
< 0.01	< 0.01	C[C@@H]1CN(c2cccc(-c3csc(NC(=O)CNC(=O)c4ccn(C(C)(C)C#N)c4)n3)n2)C[C@H](C)O1 [Compound 331]
